# Reference: patent publication US8153821B2, “Compounds” (priority 2008, dated 2012)
# Assays:
# [1] = test system: CYP1A2, CYP2C9, CYP2C19, CYP2D6, CYP3A4 (5 major CYPs); assay: in vitro; format: in vitro ADME; settings: human
# Protocol: Inhibition of CYP1A2, CYP2C9, CYP2C19, CYP2D6 and CYP3A4 catalytic activity by (R)-3-((E)-2-(pyrrolidin-3-yl)vinyl)-5-(tetrahydropyran-4-yloxy)pyridine or a slat thereof was assessed using a fluorogenic CYP assay. Probe substrates which fluoresce upon CYP catalyzed oxidation were used to evaluate the degree of inhibition of the test substrate. A single concentration of each probe substrate (at approximately the apparent Km value) and two different concentrations of (R)-3-((E)-2-(pyrrolidin-3-yl)vinyl)-5-(tetrahydropyran-4-yloxy)pyridine hemigalactarate (2 and 20 μM) were tested in duplicate. Fluorescence intensity at selected wavelengths was used as a measure of enzyme activity. Decreased fluorescence in the presence of (R)-3-((E)-2-(pyrrolidin-3-yl)vinyl)-5-(tetrahydropyran-4-yloxy)pyridine or a sat thereof was an indication of inhibition. […] Duplicate samples were run alongside the positive and negative controls. Incubation of test samples was performed at 37° C. Experimental parameters are outlined in Table 2.
# [2] = biological target: T1, human native ganglion receptors (Homo sapiens, UniProt P30926+P32297); assay: Ca flux assay, SH-SY5Y cells; format: cell-based
# T1 construct: human native ganglion-type nicotinic receptors (likely α3β4); endogenous in cells; host or cells: SH-SY5Y
# T1 sequence (P32297 32-505): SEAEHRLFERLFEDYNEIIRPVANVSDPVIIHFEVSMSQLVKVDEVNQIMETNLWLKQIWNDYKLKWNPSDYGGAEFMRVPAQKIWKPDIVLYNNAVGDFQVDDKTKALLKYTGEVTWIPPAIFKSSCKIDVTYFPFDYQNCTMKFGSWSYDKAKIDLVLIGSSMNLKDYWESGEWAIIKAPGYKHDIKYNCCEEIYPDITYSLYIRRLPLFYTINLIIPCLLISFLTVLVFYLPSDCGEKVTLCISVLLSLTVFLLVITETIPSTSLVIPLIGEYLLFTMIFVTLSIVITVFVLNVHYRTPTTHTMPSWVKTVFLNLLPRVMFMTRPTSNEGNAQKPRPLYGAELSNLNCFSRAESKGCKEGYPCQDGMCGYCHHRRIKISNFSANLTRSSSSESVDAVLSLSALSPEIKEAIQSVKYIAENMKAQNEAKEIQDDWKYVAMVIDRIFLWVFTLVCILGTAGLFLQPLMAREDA
# T1 sequence (P30926 22-498): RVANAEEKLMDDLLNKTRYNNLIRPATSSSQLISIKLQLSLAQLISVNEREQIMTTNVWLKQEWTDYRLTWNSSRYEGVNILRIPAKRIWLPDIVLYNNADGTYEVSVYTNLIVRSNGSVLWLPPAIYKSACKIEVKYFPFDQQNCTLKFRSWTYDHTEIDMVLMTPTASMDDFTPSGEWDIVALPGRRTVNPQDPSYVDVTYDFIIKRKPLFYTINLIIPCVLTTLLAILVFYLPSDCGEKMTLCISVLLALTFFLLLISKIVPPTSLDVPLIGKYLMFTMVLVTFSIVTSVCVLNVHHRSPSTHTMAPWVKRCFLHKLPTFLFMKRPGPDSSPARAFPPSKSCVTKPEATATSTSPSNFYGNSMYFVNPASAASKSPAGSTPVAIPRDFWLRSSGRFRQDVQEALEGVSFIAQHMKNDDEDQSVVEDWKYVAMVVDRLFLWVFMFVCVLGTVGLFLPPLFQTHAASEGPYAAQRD
# Protocol: The cell line SH-SY5Y is a continuous line derived by sequential subcloning of the parental cell line, SK-N-SH, which was originally obtained from a human peripheral neuroblastoma. SH-SY5Y cells express a ganglion-like nAChR (Lukas et al., Mol. Cell. Neurosci. 4: 1 (1993)).
# (§1) (R)-3-((E)-2-(Pyrrolidin-3-yl)vinyl)-5-(tetrahydropyran-4-yloxy)pyridine or a salt thereof was tested in ganglion and muscle-type nicotinic receptor ion flux assays to examine functional selectivity.
# [3] = biological target: CYP2D6 (Homo sapiens, UniProt P10635); format: in vitro ADME
# CYP2D6, sequence (P10635 whole entry): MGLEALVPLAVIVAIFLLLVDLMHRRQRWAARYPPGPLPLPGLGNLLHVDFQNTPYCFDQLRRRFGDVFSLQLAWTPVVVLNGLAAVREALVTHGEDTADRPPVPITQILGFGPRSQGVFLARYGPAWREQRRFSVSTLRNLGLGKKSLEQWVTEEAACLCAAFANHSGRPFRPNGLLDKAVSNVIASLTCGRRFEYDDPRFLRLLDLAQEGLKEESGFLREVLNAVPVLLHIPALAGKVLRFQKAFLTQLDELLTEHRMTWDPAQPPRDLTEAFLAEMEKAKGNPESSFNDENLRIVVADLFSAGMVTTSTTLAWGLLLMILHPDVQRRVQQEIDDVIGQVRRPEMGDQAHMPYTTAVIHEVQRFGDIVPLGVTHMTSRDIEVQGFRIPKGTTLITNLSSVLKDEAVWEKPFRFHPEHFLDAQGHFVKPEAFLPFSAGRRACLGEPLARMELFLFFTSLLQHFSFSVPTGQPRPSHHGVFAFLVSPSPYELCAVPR
# [4] = biological target: T2, human native muscle receptors (Homo sapiens, UniProt P02708+P07510+Q07001); assay: Ca flux assay, TE-671 cells; format: cell-based
# T2 construct: human native muscle-type nicotinic receptors (likely α1β1γδ); endogenous in cells; host or cells: TE-671 (TE671/RD)
# T2 sequence (P02708 21-457): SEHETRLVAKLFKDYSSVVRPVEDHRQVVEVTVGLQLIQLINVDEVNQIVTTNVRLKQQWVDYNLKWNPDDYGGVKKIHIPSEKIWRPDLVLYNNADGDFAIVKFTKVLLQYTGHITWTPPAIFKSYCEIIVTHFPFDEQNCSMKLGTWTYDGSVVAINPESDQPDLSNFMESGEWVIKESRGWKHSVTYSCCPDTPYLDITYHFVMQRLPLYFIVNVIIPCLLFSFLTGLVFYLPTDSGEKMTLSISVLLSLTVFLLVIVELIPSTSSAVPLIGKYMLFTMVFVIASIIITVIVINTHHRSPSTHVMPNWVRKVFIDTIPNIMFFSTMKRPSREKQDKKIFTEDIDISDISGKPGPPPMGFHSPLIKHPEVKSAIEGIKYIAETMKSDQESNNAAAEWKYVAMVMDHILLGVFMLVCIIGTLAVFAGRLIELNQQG
# T2 sequence (P11230 24-501 partner): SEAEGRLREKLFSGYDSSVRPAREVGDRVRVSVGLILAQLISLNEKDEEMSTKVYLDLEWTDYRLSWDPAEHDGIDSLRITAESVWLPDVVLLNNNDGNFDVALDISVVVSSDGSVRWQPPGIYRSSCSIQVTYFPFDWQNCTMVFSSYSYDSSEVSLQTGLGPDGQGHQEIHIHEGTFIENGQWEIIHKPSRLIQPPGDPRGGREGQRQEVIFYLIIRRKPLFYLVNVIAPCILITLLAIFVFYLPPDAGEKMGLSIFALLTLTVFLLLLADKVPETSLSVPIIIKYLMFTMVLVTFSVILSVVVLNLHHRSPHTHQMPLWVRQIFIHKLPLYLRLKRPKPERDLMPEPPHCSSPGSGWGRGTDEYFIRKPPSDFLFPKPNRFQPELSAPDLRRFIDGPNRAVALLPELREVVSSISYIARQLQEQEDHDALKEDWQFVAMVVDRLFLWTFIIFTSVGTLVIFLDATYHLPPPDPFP
# T2 sequence (P07510 23-517): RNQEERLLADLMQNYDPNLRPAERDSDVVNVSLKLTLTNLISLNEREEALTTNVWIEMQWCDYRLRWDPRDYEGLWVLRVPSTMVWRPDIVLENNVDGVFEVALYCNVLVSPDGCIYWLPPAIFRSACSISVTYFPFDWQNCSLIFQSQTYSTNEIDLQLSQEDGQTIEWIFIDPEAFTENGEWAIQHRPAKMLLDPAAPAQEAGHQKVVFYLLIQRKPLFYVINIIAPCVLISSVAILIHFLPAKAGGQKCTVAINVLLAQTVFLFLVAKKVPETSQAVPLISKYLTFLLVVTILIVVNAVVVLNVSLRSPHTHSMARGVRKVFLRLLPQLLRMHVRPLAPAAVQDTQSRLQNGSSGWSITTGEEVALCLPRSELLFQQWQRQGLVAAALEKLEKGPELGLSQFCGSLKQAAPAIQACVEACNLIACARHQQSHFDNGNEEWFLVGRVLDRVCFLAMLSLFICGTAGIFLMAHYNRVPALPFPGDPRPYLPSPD
# T2 sequence (Q07001 22-517): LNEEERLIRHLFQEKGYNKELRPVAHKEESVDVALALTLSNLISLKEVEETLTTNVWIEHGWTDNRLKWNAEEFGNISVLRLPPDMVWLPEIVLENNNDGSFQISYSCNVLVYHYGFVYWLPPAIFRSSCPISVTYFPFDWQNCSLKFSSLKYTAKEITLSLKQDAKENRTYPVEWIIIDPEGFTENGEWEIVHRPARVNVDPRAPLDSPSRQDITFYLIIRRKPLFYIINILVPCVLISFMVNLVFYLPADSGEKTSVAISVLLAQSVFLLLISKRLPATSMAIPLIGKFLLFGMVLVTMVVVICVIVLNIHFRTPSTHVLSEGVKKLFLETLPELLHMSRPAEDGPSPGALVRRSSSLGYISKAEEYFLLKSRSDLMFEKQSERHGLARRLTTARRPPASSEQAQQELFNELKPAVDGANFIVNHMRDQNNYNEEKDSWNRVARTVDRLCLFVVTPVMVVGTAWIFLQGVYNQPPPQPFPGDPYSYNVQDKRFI
# Text: Activation of muscle-type nAChRs was established on the human clonal line TE671/RD, which is derived from an embryonal rhabdomyosarcoma (Stratton et al., Carcinogen 10: 899 (1989)). These cells express receptors that have pharmacological (Lukas, J. Pharmacol. Exp. Ther. 251: 175 (1989)), electrophysiological (Oswald et al., Neurosci. Lett. 96: 207 (1989)), and molecular biological profiles (Luther et al., J. Neurosci. 9: 1082 (1989)) similar to the muscle-type nAChR.
# as §1
# [5] = biological target: T3, human native ganglion-type nicotinic receptors (likely α3β4) (Homo sapiens, UniProt P30926+P32297); assay: [3H]epibatidine binding, SH-SY5Y membranes
# T3 construct: human native ganglion-type nicotinic receptors (likely α3β4); endogenous in cells; host or cells: SH-SY5Y
# T3 sequence (P30926 22-498): as the sequence (P30926 22-498) above
# T3 sequence (P32297 32-505): as the sequence (P32297 32-505) above
# [6] = biological target: α4β2 (Homo sapiens, UniProt P17787+P43681); assay: Calcium flux assay, SH-EP1/human α4β2 cells; format: cell-based; design: expressed in transfected cells; host or cells: SH-EP1
# α4β2, sequence (P43681 29-627 limits assumed): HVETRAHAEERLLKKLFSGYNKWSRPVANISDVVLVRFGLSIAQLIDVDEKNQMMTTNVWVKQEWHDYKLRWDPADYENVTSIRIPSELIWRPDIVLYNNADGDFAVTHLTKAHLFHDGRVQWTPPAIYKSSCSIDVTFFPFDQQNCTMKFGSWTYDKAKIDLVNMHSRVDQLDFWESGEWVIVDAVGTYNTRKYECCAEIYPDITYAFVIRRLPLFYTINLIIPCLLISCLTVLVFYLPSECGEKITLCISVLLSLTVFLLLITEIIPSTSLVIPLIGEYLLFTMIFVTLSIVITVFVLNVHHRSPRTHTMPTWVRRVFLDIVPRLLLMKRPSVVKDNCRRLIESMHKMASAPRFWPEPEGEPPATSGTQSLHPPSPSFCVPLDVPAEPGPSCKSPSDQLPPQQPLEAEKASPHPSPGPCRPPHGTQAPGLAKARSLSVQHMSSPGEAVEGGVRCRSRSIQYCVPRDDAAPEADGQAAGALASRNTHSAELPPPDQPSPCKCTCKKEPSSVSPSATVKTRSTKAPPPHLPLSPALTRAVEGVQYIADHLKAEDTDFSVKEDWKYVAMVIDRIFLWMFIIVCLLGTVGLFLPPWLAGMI
# α4β2, sequence (P17787 26-502): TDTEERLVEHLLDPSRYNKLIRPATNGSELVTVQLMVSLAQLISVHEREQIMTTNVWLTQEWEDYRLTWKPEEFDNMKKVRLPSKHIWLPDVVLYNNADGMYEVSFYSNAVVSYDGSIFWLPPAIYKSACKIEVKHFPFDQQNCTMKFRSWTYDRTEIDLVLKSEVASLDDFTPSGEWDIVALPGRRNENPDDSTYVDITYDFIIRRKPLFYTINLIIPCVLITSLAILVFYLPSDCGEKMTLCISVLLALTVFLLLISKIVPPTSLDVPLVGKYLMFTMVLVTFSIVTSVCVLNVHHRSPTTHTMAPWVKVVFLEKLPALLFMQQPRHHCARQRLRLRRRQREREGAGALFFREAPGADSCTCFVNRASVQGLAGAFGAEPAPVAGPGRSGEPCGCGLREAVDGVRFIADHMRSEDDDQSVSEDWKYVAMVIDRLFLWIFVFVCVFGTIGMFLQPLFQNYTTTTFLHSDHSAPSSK
# Text: Cellular efficacy: The aim of these studies was to determine functional activity of (R)-3-((E)-2-(pyrrolidin-3-yl)vinyl)-5-(tetrahydropyran-4-yloxy)pyridine or a salt thereof at human recombinant α4β2 receptors.
# [7] = biological target: CYP3A4 (Homo sapiens, UniProt P08684); format: in vitro ADME
# [8] = biological target: T4, human recombinant α4β2 nicotinic receptors (Homo sapiens, UniProt P17787+P43681); assay: Radioligand binding, human recombinant α4β2 in SH-EP1 cellular membranes
# T4 construct: expressed in transfected cells; host or cells: SH-EP1
# T4 sequence (P43681 29-627 limits assumed): as the sequence (P43681 29-627 limits assumed) above
# T4 sequence (P17787 26-502): as the sequence (P17787 26-502) above
# Protocol: Preparation of membranes from SH-EP1/human α4β2 clonal cells: Cell pellets from 40 150 mm culture dishes were pooled, and homogenized by Polytron (Kinematica GmbH, Switzerland) in 20 milliliters of ice-cold preparative buffer. […] The resulting pellet was re-suspended in 20 mL of ice-cold preparative buffer and stored at −20° C.
# Assay. On the day of the assay, the frozen membranes were thawed and spun at 48,000×g for 20 min. The supernatant was decanted and discarded. The pellet was resuspended in Dulbecco's phosphate buffered saline (PBS, Life Technologies) pH 7.4 and homogenized with the Polytron for 6 seconds. Protein concentrations were determined using a Pierce BCA Protein Assay Kit, with bovine serum albumin as the standard (Pierce Chemical Company, Rockford, Ill.).
# Incubation was terminated by rapid filtration on a multi-manifold tissue harvester (Brandel, Gaithersburg, Md.) using GF/B filters presoaked in 0.33% polyethyleneimine (w/v) to reduce non-specific binding. Tissue was rinsed 3 times in PBS, pH 7.4. […] Filters were then counted to determine radioactivity bound to the membranes by liquid scintillation counting (2200CA Tri-Carb LSC, Packard Instruments, 50% efficiency or Wallac Trilux 1450 MicroBeta, 40% efficiency, Perkin Elmer).
# Data were expressed as disintegrations per minute (DPMs). […]
# [9] = format: in vitro ADME; settings: human
# Text: (§2) Therefore any variation of (R)-3-((E)-2-(pyrrolidin-3-yl)vinyl)-5-(tetrahydropyran-4-yloxy)pyridine or a salt thereof metabolism in human due to CYP polymorphism is expected to be less than 2 fold due to the significant renal clearance and low hepatic clearance.
# [10] = test system: CYP2D6 and FMO3; format: in vitro ADME; settings: human
# Text: as §2
structure (smiles),measurement,setting,value
"C(=C\[C@H]1CCNC1)/c1cncc(OC2CCOCC2)c1 [Compound A, (R)-3-((E)-2-(pyrrolidin-3-yl)vinyl)-5-(tetrahydropyran-4-yloxy)pyridine]",IC50,[1],> 20 µM
same,EC50,[2],11 µM
same,Human ganglionic (SH-SY5Y) Emax (Ca flux),[2]; SH-SY5Y cells,"μM, 13%"
same,Emax,"[2]; SH-SY5Y cells, read-out: Human ganglionic (SH-SY5Y) Emax (Ca flux)",13%
same,time-dependent inhibition of CYP2D6,[3],no evidence of time-dependent inhibition
same,EC50,[4],13 µM
same,Human (TE671/RD) muscle Emax (Ca flux),[4]; TE-671 cells,"μM, 37%"
same,Emax,"[4]; TE-671 cells, read-out: Human (TE671/RD) muscle Emax (Ca flux)",37%
same,Ki,[5],3.4 µM
same,EC50,[6],0.1 µM
same,Emax,"[6]; SH-EP1, read-out: Human recombinant (SH-EP 1) α4β2 Emax (Ca flux)",76%
same,Human recombinant (SH-EP 1) α4β2 Emax (Ca flux),"[6]; in relation to 10 μM nicotine, 24-h incubation at 29° C.","μM, 76%"
same,time-dependent inhibition of CYP3A4,[7],no evidence of time-dependent inhibition
same,Ki,[8],0.002 µM
same,hepatic turnover rate,[9],low hepatic turnover rate
same,enzymes contributing to metabolism,[10],both CYP2D6 and FMO3 contributed to the metabolism
